# Source: patent publication US8574831B2, “Mutational profiles in HIV-1 reverse transcriptase correlated with phenotypic drug resistance” (Virco N.V., priority 2000, dated 2013)
# Test system: HIV with mutations in the HIV protease sequence
# Assay: Phenotypic fold resistance to protease inhibitors, protease mutations 84A/84L/84C/54M/54L/54V in a background (Examples 8-13)
# Assay type: cell-based, HIV-1
# Summary of the method: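 Fold-resistance equals chimeric-virus IC50 divided by IC50 of a parallel wild-type reference HIV-1 strain. Chimeras come from PCR-amplified PR/RT genes recombined into PR/RT-deleted HXB2 proviral DNA inside CD4+ T cells, then cultured with graded drug concentrations.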
structure (smiles),measurement,setting,value
"Cc1c(O)cccc1C(=O)N[C@@H](CSc1ccccc1)[C@H](O)CN1C[C@H]2CCCC[C@H]2C[C@H]1C(=O)NC(C)(C)C [Nelfinavir, nelfinavir]",mean fold increase in resistance,"Table 9 #1, protease genotype WT",0.7 fold
same,mean fold increase in resistance,"Table 9 #2, protease genotype 10I",1 fold
same,mean fold increase in resistance,"Table 9 #3, protease genotype 46I",1.5 fold
same,mean fold increase in resistance,"Table 9 #4, protease genotype 46I + 84V",5.6 fold
same,mean fold increase in resistance,"Table 9 #5, protease genotype 46I + 84A",61.9 fold
same,mean fold increase in resistance,"Table 9 #6, protease genotype 10I + 46I",0.8 fold
same,mean fold increase in resistance,"Table 9 #7, protease genotype 10I + 46I + 84V",3.1 fold
same,mean fold increase in resistance,"Table 9 #8, protease genotype 10I + 46I + 84A",43.9 fold
same,mean fold increase in resistance,"Table 9 #9, protease genotype 10L/I + 46I + 84A",56.2 fold
same,mean fold increase in resistance,"Table 9 #10, protease genotype 10I + 46I + 84A",36.9 fold
same,mean fold increase in resistance,"Table 9 #11, protease genotype 46I + 71V",1 fold
same,mean fold increase in resistance,"Table 9 #12, protease genotype 46I + 71V + 84V/I",0.7 fold
same,mean fold increase in resistance,"Table 9 #13, protease genotype 46I + 71V + 84A",59.9 fold
same,mean fold increase in resistance,"Table 9 #14, protease genotype 10F + 46I + 71V",45.2 fold
same,mean fold increase in resistance,"Table 9 #15, protease genotype 10I + 46I + 71V + 84V",57.1 fold
same,mean fold increase in resistance,"Table 9 #16, protease genotype 10I + 46I + 71V + 84A",54.9 fold
same,mean fold increase in resistance,"Table 9 #17, protease genotype 10V + 46I + 71T + 84A",51.2 fold
same,mean fold increase in resistance,"Table 9 #18, protease genotype 10I + 46I + 71V + 77I",6.1 fold
same,mean fold increase in resistance,"Table 9 #19, protease genotype 10I + 46I + 71V + 77I + 84V",2.8 fold
same,mean fold increase in resistance,"Table 9 #20, protease genotype 10I + 46I + 71V + 77I + 84A",68.6 fold
same,mean fold increase in resistance,"Table 9 #21, protease genotype 10I + 33L/I + 46I + 71V + 77V/I + 84A",63.1 fold
same,mean fold increase in resistance,"Table 10 #1, protease genotype 10I + 36I + 71V",1.5 fold
same,mean fold increase in resistance,"Table 10 #2, protease genotype 10I + 36I + 71I + 84V",0.8 fold
same,mean fold increase in resistance,"Table 10 #3, protease genotype 10I + 36I + 71I + 84L",39.4 fold
same,mean fold increase in resistance,"Table 11 #1, protease genotype WT",0.7 fold
same,mean fold increase in resistance,"Table 11 #2, protease genotype 84V",0.9 fold
same,mean fold increase in resistance,"Table 11 #3, protease genotype 84C",51.2 fold
same,mean fold increase in resistance,"Table 11 #4, protease genotype 10I",1.0 fold
same,mean fold increase in resistance,"Table 11 #5, protease genotype 10I + 84V",2.0 fold
same,mean fold increase in resistance,"Table 11 #6, protease genotype 10I + 84C",61.9 fold
same,mean fold increase in resistance,"Table 11 #7, protease genotype 77I",0.9 fold
same,mean fold increase in resistance,"Table 11 #8, protease genotype 77I + 84V",2.8 fold
same,mean fold increase in resistance,"Table 11 #9, protease genotype 77I + 84C",61.9 fold
same,mean fold increase in resistance,"Table 11 #10, protease genotype 77I + 84C",38.2 fold
same,mean fold increase in resistance,"Table 11 #11, protease genotype 10I + 24I + 36I + 46I + 71V + 84C",51.7 fold
same,Fold change in IC50,"Table 12, V19263, genotype 77I",0.9 fold
same,Fold change in IC50,"Table 12, V20160, genotype WT",0.7 fold
same,Fold change in IC50,"Table 12, V021667, genotype 10I",1.0 fold
same,Fold change in IC50,"Table 12, V030496, genotype 10I + 77I",0.7 fold
same,Fold change in IC50,"Table 12, V048869, genotype 10I + 54M + 77I + 90M",28.5 fold
same,Fold change in IC50,"Table 12, V048872, genotype 33F + 54M + 77I + 90M",7.4 fold
same,Fold change in IC50,"Table 12, V048873, genotype 33F + 54M + 77I + 90M",7.7 fold
same,Fold change in IC50,"Table 12, V048877, genotype 10I + 33F + 77I + 90M",9.4 fold
same,Fold change in IC50,"Table 12, V048878, genotype 10I + 33F + 54M + 71V + 77I + 90M",7.3 fold
same,Fold change in IC50,"Table 12, V048879, genotype 10I + 33F + 54M + 71V + 77I + 90M",45.7 fold
same,Fold change in IC50,"Table 12, V048880, genotype 10I + 33F + 77I + 90M",4.9 fold
same,Fold change in IC50,"Table 12, V052940, genotype 71V",0.6 fold
same,Fold change in IC50,"Table 12, V052942, genotype 10I + 71V",0.9 fold
same,Fold change in IC50,"Table 12, V052943, genotype 10I + 90M",2.2 fold
same,Fold change in IC50,"Table 12, V052944, genotype 10I + 90M",1.4 fold
same,Fold change in IC50,"Table 12, V052945, genotype 77I + 90M",3.0 fold
same,Fold change in IC50,"Table 12, V052946, genotype 71V + 90M",3.0 fold
same,Fold change in IC50,"Table 12, V052947, genotype 10I + 77I + 90M",8.2 fold
same,Fold change in IC50,"Table 12, V052948, genotype 10I + 71V + 90M",9.0 fold
same,Fold change in IC50,"Table 12, V052949, genotype 10I + 71V + 77I + 90M",8.6 fold
same,Fold change in IC50,"Table 12, V052950, genotype 33F",1.0 fold
same,Fold change in IC50,"Table 12, V052951, genotype 33F + 77I",5.2 fold
same,Fold change in IC50,"Table 12, V052953, genotype 10I + 33F + 77I",0.9 fold
same,Fold change in IC50,"Table 12, V052954, genotype 33F + 77I + 90M",5.9 fold
same,Fold change in IC50,"Table 12, V052955, genotype 33F + 71V + 90M",36.6 fold
same,Fold change in IC50,"Table 12, V052977, genotype 10I + 33F + 54M",3.8 fold
same,Fold change in IC50,"Table 12, V052978, genotype 10I + 33F + 54M + 71V + 90M",29.1 fold
same,Fold change in IC50,"Table 12, V052979, genotype 10I + 54M",3.8 fold
same,Fold change in IC50,"Table 12, V052980, genotype 10I + 54M + 90M",7.0 fold
same,Fold change in IC50,"Table 12, V052981, genotype 10I + 54M + 71V + 90M",8.7 fold
same,Fold change in IC50,"Table 12, V052982, genotype 10I + 54M + 71V + 77I + 90M",10.1 fold
same,Fold change in IC50,"Table 12, V053832, genotype 10I + 33F",1.6 fold
